Results taken from patent US20260053778A1, “USE OF NOVEL PPAR ACTIVITY MODULATOR FOR PREVENTION, AMELIORATION OR TREATMENT OF DEGENERATIVE BRAIN DISEASES” (POSTECH RESEARCH AND BUSINESS DEVELOPMENT FOUNDATION, priority 2022, published 2026).

Tests used:
5×FAD mice = assay: RT-PCR of adult microglia isolated from brains of treated mice; format: in vivo, mouse; settings: microglia isolated from 5×FAD mice administered DTMB
Method: To elucidate whether the gliosis reduction effect of DTMB administration confirmed in Example 6 was due to functional changes in microglia, brain tissues from mice administered DTMB were extracted, microglia were isolated, and the expression of genes related to inflammation and activation in microglia was analyzed to what extent they changed.
To isolate adult microglia from the brains of 5×FAD mice treated with DTMB or vehicle, a magnetic-activated cell sorting (MACS) system was used. Whole brain tissue was dissociated to the single-cell level using the gentleMACs dissociation kit (Miltenyi Biotech, Bergisch Gladbach, Germany) according to the manufacturer's instructions. To isolate the immune cell fraction, a 47% Percoll concentration gradient was applied to the single-cell mixture and centrifuged at 2,000 rpm for 10 min. Adult microglia were isolated by LS column after incubation with anti-CD11b MicroBeads (Miltenyi Biotech). RT-PCR was performed using the isolated adult microglia to analyze the expression of microglial activation and inflammation-related genes. The sample size was 3 mice per group.

PPARβ/δ = target: T1, PPARβ/δ (Homo sapiens, UniProt Q03181); assay: GAL4-transactivation assay in HEK293A cells, PPARβ/δ; format: cell-based; settings: GAL4 reporter, 24 h, compared with GW501516
T1 construct: expressed in transfected cells; host or cells: HEK293A
T1 sequence (Q03181 1-441): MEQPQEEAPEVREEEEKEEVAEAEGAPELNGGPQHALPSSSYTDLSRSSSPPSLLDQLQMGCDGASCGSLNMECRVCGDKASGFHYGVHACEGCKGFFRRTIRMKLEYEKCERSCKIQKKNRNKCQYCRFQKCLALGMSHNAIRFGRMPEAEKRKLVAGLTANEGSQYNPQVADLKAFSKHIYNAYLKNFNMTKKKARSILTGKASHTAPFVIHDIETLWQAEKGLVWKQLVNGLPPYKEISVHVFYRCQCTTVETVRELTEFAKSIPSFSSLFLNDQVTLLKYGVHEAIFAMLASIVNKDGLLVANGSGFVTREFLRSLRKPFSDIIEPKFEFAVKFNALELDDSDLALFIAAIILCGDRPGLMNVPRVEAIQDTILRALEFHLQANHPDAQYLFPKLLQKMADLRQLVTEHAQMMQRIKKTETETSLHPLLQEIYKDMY
Method: A GAL4-transactivation assay experiment was performed to determine whether the drug was bound to the PPAR ligand binding site. HEK293A cells were transfected with GAL4-reporter plasmid and pGL4.74 (Promega, Madison, WI, USA) as an internal standard via electroporation using the Neon Transfection System (Invitrogen, Carlsbad, CA, USA). All vectors were kindly provided by Professor Kanno Yuichiro, Toho University, Japan. After overnight culture, cells were treated with DTMB and each positive control compound for 24 h. Cells were then harvested, resuspended in luciferase lysis buffer (Promega), and incubated on ice for 10 min. Cell debris was removed by centrifugation at 20,000×g, 4° C. for 10 min, and the supernatant was used for the luciferase assay. Luciferase activity was measured using the Dual Luciferase Reporter Assay System (Promega) according to the manufacturer's instructions. In the measurement experiment, firefly luciferase activity was normalized to Renilla luciferase activity. To investigate the concentration-dependent effect of DTMB drug, EC50 values were measured by treating various concentrations of DTMB.

## COc1ccc(-c2cc(=O)oc3c(C)c(OC(=O)[C@H](Cc4c[nH]c5ccccc45)NC(=O)OC(C)(C)C)ccc23)cc1 [DTMB, [4-(4-Methoxyphenyl)-8-methyl-2-oxochromen-7-yl](2S)-3-(1H-indol-3-yl)-2-[(2-methylpropan-2-yl)oxycarbonylamino]propanoate]
5×FAD mice
  Gene expression of Cxcl10: decreased
  Gene expression of IL-1β: decreased
  Gene expression of IL-6: decreased
  Gene expression of Iba-1: decreased
  Gene expression of Itgax2: decreased
  Gene expression of TNF-α: decreased
  Gene expression of Trem2: decreased
  Gene expression of clec7a: decreased
PPARβ/δ
  PPARβ/δ activation versus positive control: activated at a slightly higher concentration than GW501516 and rosiglitazone, respectively
